Assays:
[1] = biological target: T1, Electrophorus electricus (Ee) AChE (Electrophorus electricus, UniProt O42275); test: Acetylcholinesterase inhibitory activity (Ellman method); assay type: biochemical; conditions: mean ± SEM, read-out: EeAChE IC50
T1 construct: purchased Sigma-Aldrich
Description: The inhibitory activity against Electrophorus electricus (Ee) AChE (Sigma–Aldrich) was evaluated spectrophotometrically by the method of Ellman et al.[56] […] Inhibition curves were performed in duplicates using at least 10 increasing concentrations of inhibitors and preincubated for 20 min at 37 °C before adding the substrate. One duplicate sample without inhibitor was always present to yield 100% of AChE activity.
Results are expressed as mean ± SEM of at least 4 experiments performed in duplicate.

in vitro = conditions: pig, PAMPA
[2] = commercial drugs for PAMPA-BBB assay validation; cited from earlier work

T1 sequence (O42275 24-633): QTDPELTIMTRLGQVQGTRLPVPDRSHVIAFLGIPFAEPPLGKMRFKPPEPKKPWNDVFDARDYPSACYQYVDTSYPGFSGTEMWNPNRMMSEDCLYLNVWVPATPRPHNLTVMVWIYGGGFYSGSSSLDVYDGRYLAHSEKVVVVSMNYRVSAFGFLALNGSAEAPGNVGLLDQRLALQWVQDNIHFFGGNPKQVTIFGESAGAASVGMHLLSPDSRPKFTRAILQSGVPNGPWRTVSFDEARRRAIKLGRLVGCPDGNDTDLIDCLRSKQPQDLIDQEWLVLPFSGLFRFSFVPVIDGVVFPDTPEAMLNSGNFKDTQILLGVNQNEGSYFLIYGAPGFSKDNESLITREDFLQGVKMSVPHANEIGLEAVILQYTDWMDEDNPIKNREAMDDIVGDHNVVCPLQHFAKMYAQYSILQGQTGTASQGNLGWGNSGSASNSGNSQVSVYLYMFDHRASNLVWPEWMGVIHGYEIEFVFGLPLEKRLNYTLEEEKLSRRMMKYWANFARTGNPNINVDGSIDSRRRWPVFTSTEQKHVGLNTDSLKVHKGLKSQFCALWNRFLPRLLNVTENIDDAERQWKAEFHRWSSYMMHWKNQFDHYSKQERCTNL

Row | Structure (SMILES) | IC50 [1] | Papp (in vitro) | Pe, literature value [2]
1 | CC1=CC2Cc3nc4cc(Cl)ccc4c(NCCCCCCCCN)c3C(C1)C2 (centres unmarked) [5d] | 17.3 ± 1.2 nM | 9.8 ± 0.6 ×10⁻⁶ cm/s | –
2 | NCCCCCCCCCNc1c2c(nc3ccccc13)CCCC2 [13e] | 15.6 ± 1.5 nM | 6.9 ± 0.5 ×10⁻⁶ cm/s | –
3 | NCCCCCCCNc1c2c(nc3ccccc13)CCCC2 [13c] | 23.9 ± 2.6 nM | 7.4 ± 0.1 ×10⁻⁶ cm/s | –
4 | NCCCCCCCCCNc1c2c(nc3cc(Cl)ccc13)CCCC2 [14e] | 14.5 ± 1.6 nM | 5.8 ± 0.3 ×10⁻⁶ cm/s | –
5 | N#CCCCCCCNc1c2c(nc3cc(Cl)ccc13)CCCC2 [12c, 7-[(6-Chloro-1,2,3,4-tetrahydroacridin-9-yl)amino]heptanenitrile] | – | 16.7 ± 0.9 ×10⁻⁶ cm/s | –
6 | N=C(N)NCCCCCCCNc1c2c(nc3ccccc13)CCCC2 [15c, 1-{7-[(1,2,3,4-Tetrahydroacridin-9-yl)amino]heptyl}guanidine] | 23.9 ± 2.6 nM | 5.9 ± 0.3 ×10⁻⁶ cm/s | –
7 | CC1=CC2Cc3nc4cc(Cl)ccc4c(NCCCCCCCN)c3C(C1)C2 (centres unmarked) [5c] | 36 ± 3.5 nM | 7.6 ± 0.7 ×10⁻⁶ cm/s | –
8 | N=C(N)NCCCCCCCCCNc1c2c(nc3cc(Cl)ccc13)CCCC2 [16e, 1-{9-[(6-Chloro-1,2,3,4-tetrahydroacridin-9-yl)amino]nonyl}guanidine] | 16.4 ± 1.5 nM | 6.7 ± 0.4 ×10⁻⁶ cm/s | –
9 | CC1=CC2Cc3nc4cc(Cl)ccc4c(NCc4ccc(C#N)cc4)c3C(C1)C2 (centres unmarked) [4h] | 158 ± 21 nM | 19.3 ± 1.2 ×10⁻⁶ cm/s | –
10 | CC1=CC2Cc3nc4cc(Cl)ccc4c(NCCCCCCNC(=N)N)c3C(C1)C2 (centres unmarked) [6b, 1-{6-[(3-Chloro-6,7,10,11-tetrahydro-9-methyl-7,11-methanocycloocta[b]quinolin-12-yl)amino]hexyl}guanidine] | 11.8 ± 1.3 nM | 2.9 ± 0.4 ×10⁻⁶ cm/s | –
11 | CC1=CC2Cc3nc4cc(Cl)ccc4c(NCCCN4CCOCC4)c3C(C1)C2 (racemic) [compound 8, (±)-3-Chloro-6,7,10,11-tetrahydro-9-methyl-12-[(3-morpholinopropyl)amino]-7,11-methanocycloocta[b]quinoline] | 13.3 ± 0.8 nM | 15 ± 1 ×10⁻⁶ cm/s | –
12 | CC1=CC2Cc3nc4cc(Cl)ccc4c(NCCCN4CCCCC4)c3C(C1)C2 (racemic) [compound 7, 3-Chloro-6,7,10,11-tetrahydro-9-methyl-12-[(3-piperidinopropyl)amino]-7,11-methanocycloocta[b]quinoline] | 48.4 ± 2.7 nM | 5.9 ± 0.4 ×10⁻⁶ cm/s | –
13 | N#CCCCCCCCCNc1c2c(nc3cc(Cl)ccc13)CCCC2 [12e, 9-[(6-Chloro-1,2,3,4-tetrahydroacridin-9-yl)amino]nonanenitrile] | 24.3 ± 4.5 nM | 5.4 ± 0.4 ×10⁻⁶ cm/s | –
14 | CC1=CC2Cc3nc4cc(Cl)ccc4c(NCCCCCCCCCN)c3C(C1)C2 (centres unmarked) [5e] | 16.4 ± 1.8 nM | 7.1 ± 0.7 ×10⁻⁶ cm/s | –
15 | CC1=C[C@@H]2Cc3nc4cc(Cl)ccc4c(NCc4ccc(CN)cc4)c3[C@H](C1)C2 [5h] | – | 11.7 ± 1.1 ×10⁻⁶ cm/s | –
16 | CC1=CC2Cc3nc4cc(Cl)ccc4c(N)c3C(C1)C2 (centres unmarked) [compound 1, huprine Y, reference compound] | 0.3 ± 0.01 nM | – | –
17 | CN(C)CCCN1c2ccccc2Sc2ccccc21 [Promazine] | – | – | 8.8 10^−6 cm s^−1
18 | N#CCCCCCCNc1c2c(nc3ccccc13)CCCC2 [11c, 7-[(1,2,3,4-Tetrahydroacridin-9-yl)amino]heptanenitrile] | 53.9 ± 3 nM | 11.2 ± 0.2 ×10⁻⁶ cm/s | –
19 | CC1=CC2Cc3nc4cc(Cl)ccc4c(NCCCCCCCCCC#N)c3C(C1)C2 (centres unmarked) [4f] | 9.67 ± 0.89 nM | 11.3 ± 1.2 ×10⁻⁶ cm/s | –
20 | CC1=CC2Cc3nc4cc(Cl)ccc4c(NCCCCC#N)c3C(C1)C2 (centres unmarked) [4a] | 26.9 ± 1.1 nM | – | –
21 | CC1=CC2Cc3nc4cc(Cl)ccc4c(NCCCCCCCCCNC(=N)N)c3C(C1)C2 (centres unmarked) [6e, 1-{9-[(3-Chloro-6,7,10,11-tetrahydro-9-methyl-7,11-methanocycloocta[b]quinolin-12-yl)amino]nonyl}guanidine] | 10.6 ± 0.8 nM | 5.4 ± 0.3 ×10⁻⁶ cm/s | –
22 | N#CCCCCCCCNc1c2c(nc3cc(Cl)ccc13)CCCC2 [12d, 8-[(6-Chloro-1,2,3,4-tetrahydroacridin-9-yl)amino]octanenitrile] | 46 ± 6 nM | 14.7 ± 0.8 ×10⁻⁶ cm/s | –
23 | N=C(N)NCCCCCCCCCNc1c2c(nc3ccccc13)CCCC2 [15e, 1-{9-[(1,2,3,4-Tetrahydroacridin-9-yl)amino]nonyl}guanidine] | 30.5 ± 1.9 nM | 6.5 ± 0.3 ×10⁻⁶ cm/s | –
24 | CC1=CC2Cc3nc4cc(Cl)ccc4c(NCCCCCC#N)c3C(C1)C2 (centres unmarked) [4b] | 31.1 ± 3.1 nM | 12.4 ± 0.6 ×10⁻⁶ cm/s | –
25 | CC1=CC2Cc3nc4cc(Cl)ccc4c(NCCCCCCCCCCCN)c3C(C1)C2 (centres unmarked) [5g] | 35.3 ± 3.9 nM | 4 ± 0.2 ×10⁻⁶ cm/s | –
26 | N#CCCCCCCCCNc1c2c(nc3ccccc13)CCCC2 [11e, 9-[(1,2,3,4-Tetrahydroacridin-9-yl)amino]nonanenitrile] | 44.9 ± 1.6 nM | 7.6 ± 0.35 ×10⁻⁶ cm/s | –
